Measured values published in patent US4012576A, “Antibiotic complex Bu 2183” (priority 1975, dated 1977).
≈ marks a conversion by molar mass, not a printed value. Entries after “also recorded” stand apart in the source; their conditions may differ. Where two headings read alike, the source gives them in different places.

Key:
[1] = tested on: Gram-positive and Gram-negative bacteria; assay: In vitro antibacterial activity (general); type: cell-based
Protocol: (§1) The minimum inhibitory concentrations (MIC) of Bu-2183 A and B were determined against a wide variety of bacteria by the two-fold agar dilution method on Nutrient Agar plates. The inocula-replicating device of Steers et al. was used. Inoculum size was adjusted to be 10^4 dilution of overnight culture of the test organisms in Heart Infusion Broth (Difco). The results are shown in Table 6 along with those of kanamycin which was comparatively tested as a reference antibiotic.

[2] = Solubility; type: physicochemical; settings: base
[3] = Titration in water; type: physicochemical
[4] = tested on: E. coli A20107; assay: MIC, two-fold agar dilution on Nutrient Agar; type: cell-based; settings: Escherichia coli
Protocol: as §1

[5] = tested on: E. coli A20732; assay: MIC, two-fold agar dilution on Nutrient Agar; type: cell-based; settings: Escherichia coli, A20732
Protocol: as §1

[6] = tested on: E. coli A20895; assay: MIC, two-fold agar dilution on Nutrient Agar; type: cell-based; settings: Escherichia coli
Protocol: as §1

[7] = tested on: E. coli JR 35/C600; assay: MIC, two-fold agar dilution on Nutrient Agar; type: cell-based; settings: Escherichia coli, JR35/C600
Protocol: as §1

[8] = tested on: E. coli JR 66/W677; assay: MIC, two-fold agar dilution on Nutrient Agar; type: cell-based; settings: Escherichia coli
Protocol: as §1

[9] = tested on: E. coli ML 1630; assay: MIC, two-fold agar dilution on Nutrient Agar; type: cell-based; settings: Escherichia coli
Protocol: as §1

[10] = tested on: E. coli NIHJ; assay: MIC, two-fold agar dilution on Nutrient Agar; type: cell-based; settings: Escherichia coli
Protocol: as §1

[11] = tested on: E. coli NR 79/W677; assay: MIC, two-fold agar dilution on Nutrient Agar; type: cell-based; settings: Escherichia coli
Protocol: as §1

[12] = tested on: E. coli PO 1495; assay: MIC, two-fold agar dilution on Nutrient Agar; type: cell-based; settings: Escherichia coli, PO1495, read-out: MIC
Protocol: as §1

[13] = tested on: E. coli R 5; assay: MIC, two-fold agar dilution on Nutrient Agar; type: cell-based; settings: Escherichia coli
Protocol: as §1

[14] = tested on: Ent. cloacae A20364; assay: MIC, two-fold agar dilution on Nutrient Agar; type: cell-based; settings: Enterobacter cloacae, A20364
Protocol: as §1

[15] = tested on: Ent. cloacae A21006; assay: MIC, two-fold agar dilution on Nutrient Agar; type: cell-based; settings: Enterobacter cloacae, A21006
Protocol: as §1

[16] = tested on: K. pneumoniae D11; assay: MIC, two-fold agar dilution on Nutrient Agar; type: cell-based; settings: Klebsiella pneumoniae
Protocol: as §1

[17] = tested on: K. pneumoniae Type 22-3038; assay: MIC, two-fold agar dilution on Nutrient Agar; type: cell-based; settings: Klebsiella pneumoniae, TYPE223038
Protocol: as §1

[18] = tested on: Pr. mirabilis A9554; assay: MIC, two-fold agar dilution on Nutrient Agar; type: cell-based; settings: Proteus mirabilis
Protocol: as §1

[19] = tested on: Pr. morganii A20031; assay: MIC, two-fold agar dilution on Nutrient Agar; type: cell-based; settings: Morganella morganii, A20031
Protocol: as §1

[20] = tested on: Pr. vulgaris A9436; assay: MIC, two-fold agar dilution on Nutrient Agar; type: cell-based; settings: Proteus vulgaris
Protocol: as §1

[21] = tested on: Prov. stuartii A20894; assay: MIC, two-fold agar dilution on Nutrient Agar; type: cell-based; settings: Providencia stuartii, A20894
Protocol: as §1

[22] = tested on: Ps. aeruginosa A20601; assay: MIC, two-fold agar dilution on Nutrient Agar; type: cell-based; settings: Pseudomonas aeruginosa
Protocol: as §1

[23] = tested on: Ps. aeruginosa A20653; assay: MIC, two-fold agar dilution on Nutrient Agar; type: cell-based; settings: Pseudomonas aeruginosa
Protocol: as §1

[24] = tested on: Ps. aeruginosa A20896; assay: MIC, two-fold agar dilution on Nutrient Agar; type: cell-based; settings: Pseudomonas aeruginosa
Protocol: as §1

[25] = tested on: Ps. aeruginosa A9930; assay: MIC, two-fold agar dilution on Nutrient Agar; type: cell-based; settings: Pseudomonas aeruginosa, A9930
Protocol: as §1

[26] = tested on: Ps. aeruginosa GN 315; assay: MIC, two-fold agar dilution on Nutrient Agar; type: cell-based; settings: Pseudomonas aeruginosa, GN315
Protocol: as §1

[27] = tested on: Ps. aeruginosa No. 130; assay: MIC, two-fold agar dilution on Nutrient Agar; type: cell-based; settings: Pseudomonas aeruginosa, NO.130
Protocol: as §1

[28] = tested on: Pseudomonas sp. A20621; assay: MIC, two-fold agar dilution on Nutrient Agar; type: cell-based; settings: Pseudomonas, SP.A20621
Protocol: as §1

[29] = tested on: S. aureus A20239; assay: MIC, two-fold agar dilution on Nutrient Agar; type: cell-based; settings: Staphylococcus aureus
Protocol: as §1

[30] = tested on: S. aureus D133; assay: MIC, two-fold agar dilution on Nutrient Agar; type: cell-based; settings: Staphylococcus aureus
Protocol: as §1

[31] = tested on: S. aureus D137; assay: MIC, two-fold agar dilution on Nutrient Agar; type: cell-based; settings: Staphylococcus aureus
Protocol: as §1

[32] = tested on: S. aureus D193; assay: MIC, two-fold agar dilution on Nutrient Agar; type: cell-based; settings: Staphylococcus aureus, D193
Protocol: as §1

[33] = tested on: S. aureus Smith; assay: MIC, two-fold agar dilution on Nutrient Agar; type: cell-based; settings: Staphylococcus aureus
Protocol: as §1

[34] = tested on: Ser. marcescens A20019; assay: MIC, two-fold agar dilution on Nutrient Agar; type: cell-based; settings: Serratia marcescens, A20019
Protocol: as §1

[35] = tested on: Ser. marcescens A21247; assay: MIC, two-fold agar dilution on Nutrient Agar; type: cell-based; settings: Serratia marcescens
Protocol: as §1

## NC[C@H](O)[C@@H](O[C@H]1O[C@H](CO)[C@@H](N)[C@H](O)[C@H]1O)[C@H](N)[C@H](O)CO [Bu-2183 D]
[1]
  bio-activity: bio-inactive
[1]; listed as D
  bio-activity: bio-inactive; also recorded: bioinactive
[2]
  solubility in methanol and ethanol: slightly soluble
  solubility in n-butanol, acetone and other common organic solvents: practically insoluble
  solubility in water: soluble
[3]; read-out: pKa' (first value)
  pKa: 6.95
[3]; read-out: pKa' (second value)
  pKa: 9.68

## NC[C@H](O)[C@@H](O[C@H]1O[C@H](CO)[C@@H](O)[C@H](O)[C@H]1O)[C@H](N)[C@H](O)CO [Bu-2183 C]
[1]
  bio-activity: bio-inactive; also recorded: bioinactive

## NC[C@H]1O[C@H](O[C@H]2[C@H](O)[C@@H](O[C@H]3O[C@H](CO)[C@@H](O)[C@H](N)[C@H]3O)[C@H](N)C[C@@H]2N)[C@H](O)[C@@H](O)[C@@H]1O [Kanamycin A, reference compound]
[4]; A20107
  MIC: 25 µg/mL (≈ 51.6 µM)
[5]
  MIC: 12.5 µg/mL (≈ 25.8 µM)
[6]; A20895
  MIC: 0.8 µg/mL (≈ 1.65 µM)
[7]
  MIC: 12.5 µg/mL (≈ 25.8 µM)
[8]; JR66/W677, Table 6, Ec-53
  MIC: 25 µg/mL (≈ 51.6 µM)
[9]; ML1630
  MIC: 100 µg/mL (≈ 206 µM)
[10]
  MIC: 0.8 µg/mL (≈ 1.65 µM)
[11]; NR79/W677, Table 6, Ec-9
  MIC: 25 µg/mL (≈ 51.6 µM)
[12]; Table 6, Ec-2
  MIC: 0.4 µg/mL (≈ 0.826 µM)
[13]; R5, Table 6, Ec-55
  MIC: 6.3 µg/mL (≈ 13 µM)
[14]
  MIC: 100 µg/mL (≈ 206 µM)
[15]
  MIC: 50 µg/mL (≈ 103 µM)
[16]; D11
  MIC: 0.2 µg/mL (≈ 0.413 µM)
[17]
  MIC: 100 µg/mL (≈ 206 µM)
[18]; A9554
  MIC: 0.4 µg/mL (≈ 0.826 µM)
[19]
  MIC: 0.8 µg/mL (≈ 1.65 µM)
[20]; A9436
  MIC: 0.2 µg/mL (≈ 0.413 µM)
[21]
  MIC: 0.8 µg/mL (≈ 1.65 µM)
[22]; A20601
  MIC: 12.5 µg/mL (≈ 25.8 µM)
[23]; A20653
  MIC: > 100 µg/mL
[24]; A20896
  MIC: > 100 µg/mL
[25]
  MIC: 6.3 µg/mL (≈ 13 µM)
[26]
  MIC: 100 µg/mL (≈ 206 µM)
[27]
  MIC: 25 µg/mL (≈ 51.6 µM)
[28]
  MIC: 12.5 µg/mL (≈ 25.8 µM)
[29]; A20239
  MIC: 25 µg/mL (≈ 51.6 µM)
[30]; D133
  MIC: 0.8 µg/mL (≈ 1.65 µM)
[31]; D137
  MIC: 1.6 µg/mL (≈ 3.3 µM)
[32]
  MIC: 0.4 µg/mL (≈ 0.826 µM)
[33]
  MIC: 0.2 µg/mL (≈ 0.413 µM)
[34]
  MIC: 0.8 µg/mL (≈ 1.65 µM)
[35]; A21247
  MIC: > 100 µg/mL

## CCCC(=O)NC1C(CO)OC(OC(C(O)CN)C(N)C(O)CO)C(O)C1O (stereo not drawn) [Bu-2183 A2]
[4]; A20107, Table 7, Ec-49, read-out: MIC
  MIC: 50 µg/mL (≈ 122 µM)
[5]; Table 7, Ec-72, read-out: MIC
  MIC: 25 µg/mL (≈ 60.8 µM)
[6]; A20895, Table 7, Ec-62, read-out: MIC
  MIC: 50 µg/mL (≈ 122 µM)
[7]
  MIC: 6.3 µg/mL (≈ 15.3 µM)
[8]; JR66/W677, Table 7, Ec-53
  MIC: 25 µg/mL (≈ 60.8 µM)
[9]; ML1630, Table 7, Ec-5, read-out: MIC
  MIC: 50 µg/mL (≈ 122 µM)
[10]; Table 7, Ec-1, read-out: MIC
  MIC: 100 µg/mL (≈ 243 µM)
[11]; NR79/W677, Table 7, Ec-9
  MIC: 25 µg/mL (≈ 60.8 µM)
[12]; Table 7, Ec-2
  MIC: > 100 µg/mL
[13]; R5, Table 7, Ec-55
  MIC: 25 µg/mL (≈ 60.8 µM)
[14]; Table 7, El-2, read-out: MIC
  MIC: 100 µg/mL (≈ 243 µM)
[15]; Table 7, El-12, read-out: MIC
  MIC: 100 µg/mL (≈ 243 µM)
[16]; D11, Table 7, Kp-1, read-out: MIC
  MIC: 12.5 µg/mL (≈ 30.4 µM)
[17]; Table 7, Kp-8 (printed Type 22-3028), read-out: MIC
  MIC: 100 µg/mL (≈ 243 µM)
[18]; A9554, Table 7, Pm-1, read-out: MIC
  MIC: 50 µg/mL (≈ 122 µM)
[19]; Table 7, Pg-2, read-out: MIC
  MIC: 50 µg/mL (≈ 122 µM)
[20]; A9436, Table 7, Pv-1, read-out: MIC
  MIC: 100 µg/mL (≈ 243 µM)
[21]; Table 7, Ps-2, read-out: MIC
  MIC: > 100 µg/mL
[22]; A20601, Table 7, Pa-21, read-out: MIC
  MIC: > 100 µg/mL
[23]; A20653, Table 7, Pa-12, read-out: MIC
  MIC: > 100 µg/mL
[24]; A20896, Table 7, Pa-24, read-out: MIC
  MIC: > 100 µg/mL
[25]; Table 7, Pa-3, read-out: MIC
  MIC: 50 µg/mL (≈ 122 µM)
[26]; Table 7, Pa-27, read-out: MIC
  MIC: 100 µg/mL (≈ 243 µM)
[27]; Table 7, Pa-16, read-out: MIC
  MIC: 100 µg/mL (≈ 243 µM)
[28]; Table 7, Px-10, read-out: MIC
  MIC: > 100 µg/mL
[29]; A20239, Table 7, Sa-10, read-out: MIC
  MIC: 100 µg/mL (≈ 243 µM)
[30]; D133, Table 7, Sa-4, read-out: MIC
  MIC: 100 µg/mL (≈ 243 µM)
[31]; D137, Table 7, Sa-9, read-out: MIC
  MIC: 100 µg/mL (≈ 243 µM)
[32]; Table 7, Sa-3, read-out: MIC
  MIC: 50 µg/mL (≈ 122 µM)
[33]; Table 7, Sa-2, read-out: MIC
  MIC: 25 µg/mL (≈ 60.8 µM)
[34]; Table 7, Sm-1, read-out: MIC
  MIC: > 100 µg/mL
[35]; A21247, Table 7, Sm-16, read-out: MIC
  MIC: > 100 µg/mL
[1]
  bio-activity: bio-active
[1]; in vitro
  activity of Bu-2183 A2 relative to Bu-2183 A and B: more active than Bu-2183 B but less active than Bu-2183 A
  antibacterial spectrum: broad spectrum of antibacterial activity
[2]
  solubility in methanol and ethanol: slightly soluble
  solubility in n-butanol, acetone and other common organic solvents: practically insoluble
  solubility in water: soluble
